Biological target: T1, mu opiate receptor (MOR) (Rattus norvegicus, UniProt P33535)
T1 construct: from tissue; host or cells: striatum (membrane preparation)
Assay: MOR agonist activity using [35S]GTPgS binding assay in striatal membranes
Type: biochemical
Experimental: To assess the mu opiate receptor (MOR) agonist activity of positive compounds from the FLNA screening, compounds were tested in a [^35S]GTPgS binding assay using striatal membranes. […] This assay measures a functional consequence of receptor occupancy at one of the earliest receptor-mediated events. The assay permits for traditional pharmacological parameters of potency, efficacy and antagonist affinity, with the advantage that agonist measures are not subjected to amplification or other modulation that may occur when analyzing parameters further downstream of the receptor.
Thus, striatal tissue was homogenized in 10 volumes of ice cold 25 mM HEPES buffer, pH 7.4, which contained 1 mM EGTA, 100 mM sucrose, 50 mg/ml leupeptin, 0.04 mM PMSF, 2 mg/ml soybean trypsin inhibitor and 0.2% 2-mercaptoethanol. The homogenates were centrifuged at 800×g for 5 minutes and the supernatants were centrifuged at 49,000×g for 20 minutes. The resulting pellets were suspended in 10 volume of reaction buffer, which contained 25 mM HEPES, pH 7.5, 100 mM NaCl, 50 mg/ml leupeptin, 2 mg/ml soybean trypsin inhibitor, 0.04 mM PMSF and 0.02% […].
The resultant striatal membrane preparation (200 mg) was admixed and maintained (incubated) at 30° C. for 5 minutes in reaction buffer as above that additionally contained 1 mM MgCl2 and 0.5 nM [^35S]GTPgS (0.1 mCi/assay, PerkinElmer Life and Analytical Sciences) in a total volume of 250 ml and continued for 5 minutes in the absence or presence of 0.1-10 mM of an assayed compound of interest. The reaction was terminated by dilution with 750 ml of ice-cold reaction buffer that contained 20 mM MgCl2 and 1 mM EGTA and immediate centrifugation at 16,000×g for 5 minutes.
The resulting pellet was solubilized by sonicating for 10 seconds in 0.5 ml of immunoprecipitation buffer containing 0.5% digitonin, 0.2% sodium cholate and 0.5% NP-40. Normal rabbit serum (1 ml) was added to 1 ml of lysate and incubated at 25° C. for 30 minutes. Nonspecific immune complexes were removed by incubation with 25 ml of protein A/G-conjugated agarose beads at 25° C. for 30 minutes followed by centrifugation at 5,000×g at 4° C. for 5 minutes. The supernatant was divided and separately incubated at 25° C. for 30 minutes with antibodies raised against Gao proteins (1:1,000 dilutions).
The immunocomplexes so formed were collected by incubation at 25° C. for 30 minutes with 40 ml of agarose-conjugated protein A/G beads and centrifugation at 5,000×g at 4° C. for 5 minutes. The pellet was washed and suspended in buffer containing 50 mM Tris-HCl, pH 8.0, and 1% NP-40. The radioactivity in the suspension was determined by liquid scintillation spectrometry. […] DAMGO (1 or 10 mM) was used as a positive control.

[1] = 0.1 μM compound as agonist, Series C-1 table
[2] = 1 μM compound as agonist, Series C-1 table
[3] = 0.1 μM compound as agonist, Series C-2 table
[4] = 1 μM compound as agonist, Series C-2 table

T1 sequence (P33535 whole entry): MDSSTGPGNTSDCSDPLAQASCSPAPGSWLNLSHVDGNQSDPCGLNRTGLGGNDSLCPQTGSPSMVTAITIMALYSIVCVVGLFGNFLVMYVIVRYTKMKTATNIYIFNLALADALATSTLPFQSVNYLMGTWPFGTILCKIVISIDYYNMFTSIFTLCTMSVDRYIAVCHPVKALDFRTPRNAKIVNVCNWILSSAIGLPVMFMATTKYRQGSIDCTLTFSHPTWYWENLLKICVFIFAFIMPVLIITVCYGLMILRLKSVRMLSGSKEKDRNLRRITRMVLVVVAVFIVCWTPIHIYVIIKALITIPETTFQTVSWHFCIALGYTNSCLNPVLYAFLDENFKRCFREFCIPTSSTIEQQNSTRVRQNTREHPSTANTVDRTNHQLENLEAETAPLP

With `O=S(=O)(c1ccc(Br)c(C(F)(F)F)c1)N1CCC2(CC1)OCCN2S(=O)(=O)c1ccc(Br)c(C(F)(F)F)c1` [Compound C0077] as the compound, how does the “MOR agonist activity ([35S]GTPgS binding to Gao)” value (from here on “MOR agonist activity”) [1] read?
Its value is 192.7%.

And the “MOR agonist activity” value (1 μM + BFNA, Series C-1 table)?
The value was 136.7%.

What about the “MOR agonist activity” value [2] of the same compound?
The value was 265.4%.

Which results are given for `O=S(=O)(c1ccc(Br)cc1F)N1CCC2(CC1)OCCN2S(=O)(=O)c1ccc(Br)cc1F` [Compound C0078]?
MOR agonist activity ([35S]GTPgS binding to Gao) [1]: 138.1%; MOR agonist activity ([35S]GTPgS binding to Gao) (1 μM + BFNA, Series C-1 table): 170.7%; MOR agonist activity ([35S]GTPgS binding to Gao) [2]: 236.6%

For `CC(=O)c1ccc(S(=O)(=O)N2CCC3(CC2)OCC(CCCCN(C)C)N3S(=O)(=O)c2ccc(C(C)=O)cc2)cc1` (stereo not drawn) [Compound C0080], which “MOR agonist activity” value [1] is on record?
Its value is 187.9%.

And the “MOR agonist activity” value (1 μM + BFNA, Series C-1 table)?
Its value is 167.1%.

And the “MOR agonist activity” value [2]?
The value was 205.4%.

How did the “MOR agonist activity” value [1] turn out when `CC(=O)c1ccc(S(=O)(=O)N2CCC3(CC2)NCC(=O)N3Cc2ccccc2)cc1` [Compound C0082M] was run?
Its value is 228.1%.

And the “MOR agonist activity” value (1 μM + BFNA, Series C-1 table)?
Its value is 97.6%.

What about the “MOR agonist activity” value [2] of the same compound?
The value was 338.4%.

What does the source list for `CC(=O)c1ccc(S(=O)(=O)N2CCC3(CC2)NC(=O)C(Cc2cnc[nH]2)N3S(=O)(=O)c2ccc(C(C)=O)cc2)cc1` (stereo not drawn) [Compound C0084M]?
MOR agonist activity ([35S]GTPgS binding to Gao) [1]: 163.1%; MOR agonist activity ([35S]GTPgS binding to Gao) (1 μM + BFNA, Series C-1 table): 133.2%; MOR agonist activity ([35S]GTPgS binding to Gao) [2]: 255.5%

Which “MOR agonist activity” value [1] does the source give for `CC(=O)c1ccc(S(=O)(=O)N2CCC3(CC2)NC(=O)CN3Cc2ccccc2)cc1` [Compound C0085M] here?
Its value is 211.6%.

What about the “MOR agonist activity” value (1 μM + BFNA, Series C-1 table) of the same compound?
Its value is 43.7%.

And the “MOR agonist activity” value [2]?
Its value is 246.2%.

Which results are given for `CC(=O)c1ccc(S(=O)(=O)N2CC(=O)NC23CCNCC3)cc1` [Compound C0086M]?
MOR agonist activity ([35S]GTPgS binding to Gao) [3]: 206.8%; MOR agonist activity ([35S]GTPgS binding to Gao) (1 μM + BFNA, Series C-2 table): 152.3%; MOR agonist activity ([35S]GTPgS binding to Gao) [4]: 265.3%

Which results are given for `CC(=O)c1ccc(S(=O)(=O)N2CCC3(CC2)NC(=O)CO3)cc1` [Compound C0087M]?
MOR agonist activity ([35S]GTPgS binding to Gao) [3]: 262.8%; MOR agonist activity ([35S]GTPgS binding to Gao) (1 μM + BFNA, Series C-2 table): 142.5%; MOR agonist activity ([35S]GTPgS binding to Gao) [4]: 329.6%

`COc1ccc(S(=O)(=O)N2CCOC23CCN(C)CC3)cc1` [Compound C0088M] was tested. Which “MOR agonist activity” value [3] did it give?
The value was 276.3%.

And the “MOR agonist activity” value (1 μM + BFNA, Series C-2 table)?
Its value is 177.1%.

What about the “MOR agonist activity” value [4] of the same compound?
Its value is 355.3%.

What does the source list for `CCN1CCC2(CC1)OCCN2S(=O)(=O)c1ccc(OC)cc1` [Compound C0089M]?
MOR agonist activity ([35S]GTPgS binding to Gao) [3]: 234.5%; MOR agonist activity ([35S]GTPgS binding to Gao) (1 μM + BFNA, Series C-2 table): 81.9%; MOR agonist activity ([35S]GTPgS binding to Gao) [4]: 295.3%

Which “MOR agonist activity” value [3] does the source give for `COc1ccc(S(=O)(=O)N2CCOC23CCN(CC2CC2)CC3)cc1` [Compound C0090M] here?
The value was 237.0%.

What about the “MOR agonist activity” value (1 μM + BFNA, Series C-2 table) of the same compound?
Its value is 41.0%.

What about the “MOR agonist activity” value [4] of the same compound?
Its value is 341.0%.

With `C=CCN1CCC2(CC1)OCCN2S(=O)(=O)c1ccc(OC)cc1` [Compound C0091M] as the compound, how does the “MOR agonist activity” value [3] read?
Its value is 207.9%.

What about the “MOR agonist activity” value (1 μM + BFNA, Series C-2 table) of the same compound?
Its value is 80.8%.

And the “MOR agonist activity” value [4]?
The value was 274.4%.

For `CC(=O)c1ccc(S(=O)(=O)N2CCOC23CCN(C)CC3)cc1` [Compound C0093M], which “MOR agonist activity” value [3] is on record?
Its value is 140.0%.

What about the “MOR agonist activity” value (1 μM + BFNA, Series C-2 table) of the same compound?
Its value is 44.0%.

And the “MOR agonist activity” value [4]?
The value was 211.8%.

Which “MOR agonist activity” value [3] does the source give for `CCN1CCC2(CC1)OCCN2S(=O)(=O)c1ccc(C(C)=O)cc1` [Compound C0094M] here?
Its value is 172.5%.

And the “MOR agonist activity” value (1 μM + BFNA, Series C-2 table)?
The value was 115.3%.

And the “MOR agonist activity” value [4]?
Its value is 263.5%.

For `CC(=O)c1ccc(S(=O)(=O)N2CCOC23CCN(CC2CC2)CC3)cc1` [Compound C0095M], which “MOR agonist activity” value [3] is on record?
The value was 189.1%.

What about the “MOR agonist activity” value (1 μM + BFNA, Series C-2 table) of the same compound?
Its value is 107.7%.

What about the “MOR agonist activity” value [4] of the same compound?
Its value is 224.6%.

— patent publication US20220233512A1, “INHIBITING AN IMMUNE RESPONSE MEDIATED BY ONE OR MORE OF TLR2, RAGE, CCR5, CXCR4 AND CD4” (priority 2020, published 2022)
